For four molecules, pest or weed control and melting point results are on record in US20240090503A1, “FUNGICIDAL OXADIAZOLES AND THEIR MIXTURES” (FMC CORPORATION, priority 2020, published 2024).

The melting point is the temperature of the solid-liquid transition.

Data set [1] has as its system Puccinia recondita f. sp. tritici (the causal agent of wheat leaf rust). Put plainly: Test C: preventive spray on wheat seedlings, wheat leaf rust, visual disease rating. It counts as in vivo. The conditions noted are these: Puccinia recondita, 168 h, wheat seedlings; for pest or weed control at 10 ppm: 10 ppm test suspension. In a few lines: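 Wheat seedlings sprayed to run-off with compound in acetone/water (50/50) with 250 ppm PEG400, then inoculated with spores the following day. After 24 h saturated humidity at 20° C. and 6 days in growth chamber at 20° C., disease rated visually as % control relative to untreated controls.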

Data set [2] has as its system Phakopsora pachyrhizi (the causal agent of Asian soybean rust). Briefly: Test A: preventive spray on soybean seedlings, Asian soybean rust, visual disease rating. It counts as in vivo. The conditions noted are these: Phakopsora pachyrhizi, 216 h, soybean seedlings, 100 = 100% disease control, 0 = no control; for pest or weed control at 10 ppm: 10 ppm test suspension. In a few lines:
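Compound in acetone/water (50/50) with 250 ppm PEG400 sprayed to run-off on soybean seedlings; inoculated next day with Phakopsora pachyrhizi spores. Held 24 h at 22° C in saturated atmosphere, then 8 days in a 22° C growth chamber before visual rating as % disease control relative to controls.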

In data set [3] the test system is Zymoseptoria tritici (the causal agent of wheat leaf blotch). Briefly: Test B: preventive spray on wheat seedlings, wheat leaf blotch, visual disease rating. It counts as in vivo. The conditions noted are these: Zymoseptoria tritici, 456 h, wheat seedlings; for pest or weed control at 250 ppm: 250 ppm test suspension, 100 = 100% disease control. In a few lines: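 This is a preventive test: spray application preceded Zymoseptoria tritici spore inoculation by one day. Test suspensions were in acetone/water with 250 ppm PEG400 surfactant, at the listed ppm rate. After 48 h saturated humidity at 24° C and 17 days at 20° C, visual ratings scored control from 0 to 100%.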

For data set [4], the system named is Phakopsora pachyrhizi (the causal agent of Asian soybean rust). Briefly: Test E: compounds alone and mixtures sprayed on soybean seedlings, Asian soybean rust, observed and Colby-expected disease control. The class given is in vivo. In a few lines: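 Soybean seedlings were sprayed to run-off with compounds or mixtures in ppm. Technical materials were applied in acetone/water with 250 ppm Trem 014; formulated products were applied in water. Plants were inoculated with Phakopsora pachyrhizi spores the next day, held 24 h saturated at 22° C, then 8 days at 22° C. Visual % disease control is the mean of four plants, and Colby-expected values are given for mixtures.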

The mark [5] stands for this setting: 100 = 100% disease control, 0 = no control.
Where [6] appears, read: Phakopsora pachyrhizi, Compound 511 alone, read-out: Test E Obsd.
Where [7] appears, read: Phakopsora pachyrhizi, applied alone, read-out: Test E Obsd.
Setting [8] is: Phakopsora pachyrhizi, Compound 512 alone, read-out: Test E Obsd.

Read-outs that look alike come from different tables or passages of the source.

The molecule `O=C(NCC(F)(F)F)c1coc(Cc2ccc(-c3noc(C(F)(F)F)n3)cc2)n1` [Compound 316, N-(2,2,2-trifluoroethyl)-2-[[4-[5-(trifluoromethyl)-1,2,4-oxadiazol-3-yl]phenyl]methyl]-4-oxazolecarboxamide] registered a melting point of 164 to 168 °C. For the same molecule, the pest or weed control at 10 µg/mL in data set [1] (test suspension 10 ppm, read-out: Test C disease control rating) turned out to be 100%. In addition, the pest or weed control at 10 µg/mL in data set [2] (test suspension 10 ppm, read-out: Test A disease control rating) turned out to be 100%. For the same molecule, the pest or weed control at 250 µg/mL in data set [3] (test suspension 250 ppm) came out at 5%. In addition, the pest or weed control at 0.471 ppm in data set [4] (Phakopsora pachyrhizi, Compound 316 alone, 0.471 ppm, read-out: Test E Obsd) is 24%. Also, in data set [4] (Phakopsora pachyrhizi, Compound 316 alone, 0.764 ppm, read-out: Test E Obsd), the pest or weed control at 0.764 ppm was determined as 82%. Besides, in data set [4] (Phakopsora pachyrhizi, Table A-1, Compound 316 0.471 ppm alone, read-out: Test E Obsd (disease control rating)), the pest or weed control at 0.471 ppm turned out to be 59%. The pest or weed control at 0.764 ppm in data set [4] (Phakopsora pachyrhizi, Table A-1, Compound 316 0.764 ppm alone, read-out: Test E Obsd (disease control rating)) came to 75%. Besides, the pest or weed control at 0.471 ppm in data set [4] (Phakopsora pachyrhizi, Table B-1, Compound 316 0.471 ppm alone, read-out: Test E Obsd (disease control rating)) came to 22%. For the same molecule, the pest or weed control at 0.764 ppm in data set [4] (Phakopsora pachyrhizi, Table B-1, Compound 316 0.764 ppm alone, read-out: Test E Obsd (disease control rating)) was 54%. For the same molecule, in data set [4] (Phakopsora pachyrhizi, Table C-1, Compound 316 0.471 ppm alone, read-out: Test E Obsd (disease control rating)), the pest or weed control at 0.471 ppm turned out to be 49%. Besides, the pest or weed control at 0.764 ppm in data set [4] (Phakopsora pachyrhizi, Table C-1, Compound 316 0.764 ppm alone, read-out: Test E Obsd (disease control rating)) stood at 66%. Besides, in data set [4] (Phakopsora pachyrhizi, Table D-1, Compound 316 0.471 ppm alone, read-out: Test E Obsd (disease control rating)), the pest or weed control at 0.471 ppm turned out to be 20%. In data set [4] (Phakopsora pachyrhizi, Table D-1, Compound 316 0.764 ppm alone, read-out: Test E Obsd (disease control rating)), the pest or weed control at 0.764 ppm was 70%. Further, in data set [4] (Phakopsora pachyrhizi, Table F-1, Compound 316 0.471 ppm alone, read-out: Test E Obsd (disease control rating)), the pest or weed control at 0.471 ppm was determined as 61%. Moreover, in data set [4] (Phakopsora pachyrhizi, Table F-1, Compound 316 0.764 ppm alone, read-out: Test E Obsd (disease control rating)), the pest or weed control at 0.764 ppm turned out to be 68%. Also, the pest or weed control at 0.471 ppm in data set [4] (Phakopsora pachyrhizi, Table G-1, Compound 316 0.471 ppm alone, read-out: Test E Obsd (disease control rating)) amounted to 31%. Besides, the pest or weed control at 0.764 ppm in data set [4] (Phakopsora pachyrhizi, Table G-1, Compound 316 0.764 ppm alone, read-out: Test E Obsd (disease control rating)) came to 64%. The pest or weed control at 0.471 ppm in data set [4] (Phakopsora pachyrhizi, Table H-1, Compound 316 0.471 ppm alone, read-out: Test E Obsd (disease control rating)) was 44%. Further, the pest or weed control at 0.764 ppm in data set [4] (Phakopsora pachyrhizi, Table H-1, Compound 316 0.764 ppm alone, read-out: Test E Obsd (disease control rating)) amounted to 80%. Moreover, in data set [4] (Table E-1, Compound 316 0.471 ppm alone, read-out: Test E Obsd (disease control rating)), the pest or weed control at 0.471 ppm turned out to be 61%. Also, in data set [4] (Table E-1, Compound 316 0.764 ppm alone, read-out: Test E Obsd (disease control rating)), the pest or weed control at 0.764 ppm amounted to 58%.
For the molecule `COCCNC(=O)c1csc(Cc2ccc(-c3noc(C(F)(F)F)n3)cc2)n1` [Compound 394, N-(2-methoxyethyl)-2-[[4-[5-(trifluoromethyl)-1,2,4-oxadiazol-3-yl]phenyl]methyl]-4-thiazolecarboxamide], the melting point fell in the range of 83 to 87 °C. In addition, in data set [1] (setting [5]), the pest or weed control at 10 ppm was found to be 100%. In addition, in data set [2], the pest or weed control at 10 ppm was 100%. The pest or weed control at 250 ppm in data set [3] worked out at 99%. Besides, in data set [4] (Phakopsora pachyrhizi, applied alone, 0.241 ppm, read-out: Test E Obsd), the pest or weed control at 0.241 ppm amounted to 4%.
`COCCNC(=O)c1noc(Cc2ccc(-c3noc(C(F)(F)F)n3)cc2)n1` [Compound 511, N-(2-methoxyethyl)-5-[[4-[5-(trifluoromethyl)-1,2,4-oxadiazol-3-yl]phenyl]methyl]-1,2,4-oxadiazole-3-carboxamide] registered a melting point of 80 to 85 °C. Besides, in data set [1] (250 ppm test suspension, 100 = 100% disease control, 0 = no control), the pest or weed control at 250 ppm was 100%. In addition, in data set [2] (250 ppm test suspension), the pest or weed control at 250 ppm amounted to 100%. In data set [3], the pest or weed control at 250 ppm amounted to 90%. Also, in data set [4] (setting [6]), the pest or weed control at 2.436 ppm is 21% and the pest or weed control at 4.926 ppm was 68%. Besides, in data set [4] (setting [7]), the pest or weed control at 2.436 ppm was found to be 40% and the pest or weed control at 4.926 ppm was determined as 66%.
In turn, `Cn1nc(Cc2ccc(-c3noc(C(F)(F)F)n3)cc2)cc1C(=O)NCC(F)(F)F` [Compound 512, 1-methyl-N-(2,2,2-trifluoroethyl)-3-[[4-[5-(trifluoromethyl)-1,2,4-oxadiazol-3-yl]phenyl]methyl]-1H-pyrazole-5-carboxamide] displayed a melting point of 156 to 160 °C. For the same molecule, the pest or weed control at 10 ppm in data set [1] (setting [5]) was 100%. In addition, the pest or weed control at 10 ppm in data set [2] is 100%. In data set [3], the pest or weed control at 250 ppm worked out at 98%. Besides, in data set [4] (setting [8]), the pest or weed control at 1.893 ppm was 9% and the pest or weed control at 3.829 ppm worked out at 58%. In addition, in data set [4] (setting [7]), the pest or weed control at 1.893 ppm stood at 14% and the pest or weed control at 3.829 ppm was determined as 66%.
